Data set [1] concerns rat aortic ring. Put plainly: Rat aortic ring angiogenesis assay (Examples 1 and 2). Format: cell-based. The procedure:
Rat aorta were removed and cleaned of adhering fatty and connective tissues before being cut into rings of approximately 3 mm width. Fibrinogen was applied to the bottoms of wells of multi-well culture plates and allowed to gel by thrombin action. An aortic ring was then layered on the top of each gel and a further layer of fibrin placed on this. The fibrinogen was prepared in MCDB131 medium (Sigma, United States) supplemented with antibiotics. The double layer of fibrin was then overlaid with MCDB131 medium containing the test extracts. Control wells contained HBSS. Fumagillin (20 μg/mL) was assayed in triplicate as a negative control.
The gels were incubated at 37° C. in an atmosphere of 3% CO2/97% air. The rings were examined using an inverted microscope and the growth of microvessels from their perimeters is observed. Digital pictures were taken of these every 2 days and the extent of microvessel growth relative to the size of the ring was determined using National Institute of Health (NIH) Image software (National Institutes of Health (NIH), Rockville Pike, Bethesda, Md., United States, and the rate of growth of microvessels was then determined for each well. Each test extract was assayed in triplicate and the mean growth rate was calculated.
Additional analysis of several of the MLA008E2 fractions was performed using the rat aortic ring assay (in vitro angiogenesis) as described in Example 1.8 and a rat dorsal flap assay (wound healing assay).

Data set [2] deals with rat aortic ring. Kind of data set: Rat aortic ring angiogenesis assay (Example 4.3). As to conditions: for % of Control: microvessel growth; for activity in promoting angiogenesis: summary of second study. Format: cell-based, Lewis rat. On the procedure: Four separate studies were carried out to determine the angiogenic effect of crystallin preparations. Each sample was assayed in triplicate. A positive control (VEGF) and a vehicle control containing PBS was also run in triplicate. […] Preliminary statistical significance was assessed with an independent Student t-test at α<0.05. Graphical representation of averages +/− standard errors were determined.
The first study investigated the angiogenic potential of bovine fractions prepared by gel filtration analysis as described in Example 3.2. As described in that Example, the alpha fraction contained αA and αB crystallin, the β H fraction contained all β crystallins, the β L1 fractions contained a sub-fraction of beta crystallins and a high content of βB2 crystallin and beta B3 crystallin and the beta L2 fraction contained only βB2 crystallin and βA3 crystallin.
The second study investigated the angiogenic potential of purified crystallin proteins. Briefly, βB3 crystallin was prepared by heating (97-99° C. for 3 minutes, supernatant collected by centrifugation) and was essentially homogenous. Alpha A crystallin and αB crystallin samples were prepared by ion exchange chromatography as described above and were also essentially homogenous. The Wound Heal 1-3 preparations were also tested in this study.
The third study investigated the angiogenic potential of ovine crystallin proteins compared to their bovine equivalents. Both bovine and ovine crystallin proteins were purified essentially to homogeneity by RP. HPLC using a C4 column, as described below in Example 5. Homogeneity was confirmed by SDS-PAGE. The effect of elastase I treatment of βB2 crystallin was also investigated by comparing the angiogenic potential of intact βB2 crystallin (i.e. undigested) with elastase I digested βB2 crystallin. Elastase I treatment releases the N-terminal and C-terminal extensions of the crystallin protein leaving a globular protein that is monomeric.
In the final study, ovine βB2 crystallin was tested alone or in combination with indoleamine 2,3-dioxygenase (IDO) and ovine alpha B crystallin was tested alone or in combination with tryptophan dioxygenase (TDO)
Briefly, in each study, a single Lewis rat was euthanised and its aorta transferred to a 15 mL Falcon tube containing 10 mL of MCBD-131 medium and stored on ice. After transferring the aorta to a 92×17 mm petri dish containing 10 mL of ice cold MCDB-131, the outer fatty tissue was removed under an Olympus SZ-60 Dissecting microscope. This was undertaken with fibre optic lamp illumination. The aorta was then cut into sequential rings approximately 2 mm in size. Connective tissue was removed with micro scissors and forceps from the outside of the individual rings. Clean rings were stored in a separate petri dish in sterile MCDB-131 medium. Rings were pre-incubated overnight at 37° C. in an atmosphere of 97% air/3% CO2.
To prepare gel sandwiches, 75 mg of fibrinogen was added to 25 mL MCDB-131 medium and shaken gently on a rocker roller for 5 minutes. 3 ml of MCDB-131/fibrinogen solution was added to a 15 mL Falcon tube, followed by 10 μL of thrombin and quickly mixed. A 0.4 mL volume of this fibrinogen-thrombin solution was added to each well on a 24 well plate, 6 wells at a time. Aortic rings were then placed on the setting gel, pushed gently into the gel and left for 45 minutes. These steps were then repeated so each ring was covered with 0.4 mL of gel. Gels were left to set at room temperature. […] The plate was then placed in incubator (37° C., 97% air/3% CO2).
Culture plate were examined daily for signs of infection (fungal growth or yellowing of media) in the wells using an inverted microscope. The growth of microvessels from their perimeters was also observed. Digital photographs of each well were taken seven days after plating using a Pixera PVC-100C digital camera mounted on an OLYMPUS CK-12 microscope and stored on a Macintosh Computer. […]

The next data set concerns the target T1, elastase I (Sus scrofa, UniProt P00772).
T1 construct: purchased Worthington Biochemical Corporation 2280
Kind of data set: Chaperone activity: protection of elastase I from heat denaturation. Format: biochemical. As to conditions: boiling water bath for 30 seconds. On the procedure: Bovine crystallin fractions were tested for ability to protect the proteases elastase I, trypsin and chymotrypsin from heat denaturation. Briefly, the proteases were heated in a boiling water bath for 30 seconds in the presence or absence of the crystallin fractions.

Data set [3] relates to bovine aorta endothelial cells. Kind of data set: Endothelial cell migration assay. In kind it is cell-based. As to conditions: compared to the background level of migration (cells and media); 22±1 hour.
Protocol: Bovine aorta where obtained from a local abattoir and clamped at either end. Arterioles were tied off with string. The aorta was washed free of contaminating blood with 2% sucrose solution under sterile conditions. Trypsin was added in PBS buffer and incubated for 30 minutes. The endothelial cell suspension was mixed 1:1 with cell culture media (DMEM containing 20% foetal bovine serum, 2% glutamine and antibiotics). The cells were collected by centrifugation at 960×g for 10 minutes then suspended in media prior to culturing stock cell ampoules. After five cell passages the cells were frozen in 10% DMSO and stored in liquid nitrogen. […] The cells were then harvested for use.
BD Bioscience angiogenesis cell migration assay 24 well plates (BD Bioscience, Franklin Lakes, N.J., United States) were used as per the manufacturers instructions. The migration plate was kept at −18° C. until required. Briefly, bovine aorta endothelial cells were prepared in DMEM and HEPES pH 7.2 at 2×10^5 cells/mL. A 250 μL volume of the cell suspension (5×10^4 cells) were added to the top chamber. Immediately, 750 μL was added to each of the bottom wells using the sample port to the bottom wells. Samples were prepared by adding the glycoprotein extract to 1 mL of DMEM containing HEPES. The plate was incubated for 22±1 hour at 37° C., 5% CO2 atmosphere. […]

T1 sequence (P00772 27-266): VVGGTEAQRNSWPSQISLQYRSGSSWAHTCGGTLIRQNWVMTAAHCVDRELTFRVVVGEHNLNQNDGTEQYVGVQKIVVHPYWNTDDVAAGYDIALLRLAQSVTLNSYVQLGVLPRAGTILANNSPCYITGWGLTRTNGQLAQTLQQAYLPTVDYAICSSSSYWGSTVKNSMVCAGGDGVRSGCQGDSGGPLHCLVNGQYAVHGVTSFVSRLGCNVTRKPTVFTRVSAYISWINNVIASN

Consider `CO[C@@H]1[C@H](OC(=O)/C=C/C=C/C=C/C=C/C(=O)O)CC[C@]2(CO2)[C@H]1[C@@]1(C)O[C@@H]1CC=C(C)C` [Fumagillin], for which the “Rate of microvessel growth” value in the data set with rat aortic ring [1] (20 μg/ml) stood at 9.462 ± 1.67. The Mean growth rate in the data set on rat aortic ring [1] (batch 1, 20 μg/ml) stood at 9.5 ± 1.7; in the data set with rat aortic ring [1] (batch 2, 40 μg/ml), 5.4 ± 1.6. Besides, the Stimulation/inhibition with rat aortic ring [1] (inhibition vs Control (HBSS), 20 μg/ml) was found to be 24.07% inhibition. Besides, the “Percentage stimulation or inhibition” value is recorded as 24.1% inhibition with rat aortic ring [1] (inhibition, batch 1, 20 μg/ml) and 57.7% inhibition in the data set on rat aortic ring [1] (inhibition, batch 2, 40 μg/ml).
The compound VEGF [reference compound] yielded a Mean growth rate in the data set with rat aortic ring [1] (batch 2, 40 μg/ml) of 13.9 ± 0.2. Besides, the “Percentage stimulation or inhibition” value in the data set with rat aortic ring [1] (stimulation, batch 2, 40 μg/ml) came out at 11.1% stimulation. Further, in the data set on rat aortic ring [2] (first study, 30 μg/ml, not statistically significant), the “inhibition of microvessel growth” value was found to be 15.08%. In addition, the “% of Control” value with rat aortic ring [2] (forth study, 50 μg/mL) stood at 113.7%; in the data set on rat aortic ring [2] (second study, 50 μg/mL) it was 107.08%; in the data set on rat aortic ring [2] (third study, 50 μg/mL), 113.7%. Besides, in the data set on rat aortic ring [2] (second study, VEGF 50 μg/mL, test samples 200 μg/mL), the “angiogenic effect on microvessel growth (in words)” value is recorded as “slight stimulation”. In addition, the “activity in promoting angiogenesis” value with rat aortic ring [2] (50 ng/mL) came to 107%.
In the case of “Bovine αA crystallin: bovine alpha A crystallin prepared by ion exchange chromatography, essentially homogenous”, the “chaperone activity: protection of elastase I from heat denaturation (in words)” value with elastase I was “able to protect elastase I from heat inactivation”. In the data set on rat aortic ring [2] (second study, 200 μg/mL), the “increase in microvessel growth (stimulatory)” value amounted to 8.26% and the “% of Control” value is listed as 108.26%. The “angiogenic activity (in words)” value in the data set with rat aortic ring [2] (summary of second and third study) was “angiogenic”. Besides, the “activity in promoting angiogenesis” value with rat aortic ring [2] was found to be 108%.
With “Indoleamine 2,3-dioxygenase IDO: tryptophan hydrolyzing enzyme”, in the data set on rat aortic ring [2] (forth study, 100 μg/mL), the “angiogenic activity (in words)” value is recorded as “stimulatory” and the “% of Control” value turned out to be 116.4%.
On to `N[C@@H](Cc1c[nH]c2ccccc12)C(=O)O` [Tryptophan, tryptophan], for which, in data set [3], the “endothelial cell migration (in words)” value is on record as “able to promote migration of the cells”.

These data come from patent US8404644B2, “Agents with angiogenic and wound healing activity” (Meat & Livestock Australia Limited, priority 2007, dated 2013).
